Results from article PMC3901077 (Journal of medicinal chemistry, 2010).
Where two headings read alike, the source gives them in different places.

Legend:
[1] = system: A549 human lung carcinoma cells; assay: MTT cytotoxicity assay in A549 cells; assay type: cell-based; conditions: IC50 versus CPT

SMILES | fold less potent than parent drug (CPT) [1] | CPT reconversion rate (rank among prodrugs) (PB pH 6.6, 7.0 and 7.4) | time for ester bond hydrolysis (PB pH 6.6, 37 °C) | time for ester bond hydrolysis (PB pH 7.0, 37 °C) | time for ester bond hydrolysis (PB pH 7.4, 37 °C) | stability (rank among prodrugs) (PB pH 6.6, 7.0 and 7.4)
CC[C@@]1(OC(=O)CN)C(=O)OCc2c1cc1n(c2=O)Cc2cc3ccccc3nc2-1 [Prodrug 2a] | about 2 fold | fastest | ≤ 96 h | ≤ 96 h | ≤ 72 h | 
CC[C@@]1(OC(=O)[C@@H](C)N)C(=O)OCc2c1cc1n(c2=O)Cc2cc3ccccc3nc2-1 [Prodrug 2b] | ~20 fold |  | 96 h | 96 h | ≤ 72 h | 
CC[C@@H](N)C(=O)O[C@]1(CC)C(=O)OCc2c1cc1n(c2=O)Cc2cc3ccccc3nc2-1 [Prodrug 2c] |  |  | 120 h | ~ 120 h | ≤ 96 h | 
CCC[C@@H](N)C(=O)O[C@]1(CC)C(=O)OCc2c1cc1n(c2=O)Cc2cc3ccccc3nc2-1 [Prodrug 2d] |  |  | 144 h | ≤ 120 h | ≤ 120 h | most stable
